# Experimental data: patent publication US20230218563A1, “METHODS FOR TREATING OR PREVENTING CHRONIC KIDNEY DISEASE” (Arthrosi Therapeutics, Inc., priority 2020, published 2023)
# Columns and labels:
# [1] = system: urine albumin-to-creatinine ratio (UACR); assay: Renal function safety pharmacology study in rats, single oral dose (urine albumin, creatinine, UACR); assay type: in vivo, Sprague Dawley Rats
# Experimental: Cageside and detailed clinical observations, body weights, water consumption, blood clinical chemistry, urine chemistry, and urinalysis were performed. Osmolality, osmolality gap, urine volume, water intake rate, fluid balance, urinary excretion, renal creatinine clearance, renal clearance, free water clearance, and fractional electrolyte clearance were calculated and evaluated. All animals were euthanized on Day 2 after scheduled observations. Blood samples for clinical chemistry analysis were collected from all the animals at 24 hours post dose prior to each scheduled euthanasia. Urine samples for clinical chemistry and urinalysis were collected from all the animals at pre-dose (˜24 hours) and 0-6 hours and 6-24 hours post-dose.
# [2] = system: urine albumin-to-creatinine ratio (UACR); assay: Phase 2a study, UACR in a subject with albuminuria; assay type: in vivo, human; settings: one subject with albuminuria, baseline 96 mg/g; sequential 7-day periods: Compound 1 50 mg (Day 7), Compound 1 50 mg/allopurinol 300 mg (Day 14), allopurinol 300 mg (Day 21)
# Description: Urine samples were collected for assessment of uric acid excretion. Laboratory safety tests, vital signs, and electrocardiograms were collected throughout the study.
# [3] = female rats, 5 mg/kg single oral, urine 0-6 h post dose
# [4] = female rats, 5 mg/kg single oral, urine 6-24 h post dose
# [5] = female rats, 15 mg/kg single oral, urine 0-6 h post dose
# [6] = female rats, 15 mg/kg single oral, urine 6-24 h post dose
# [7] = female rats, 50 mg/kg single oral, urine 0-6 h post dose
# [8] = female rats, 50 mg/kg single oral, urine 6-24 h post dose
# [9] = male rats, 10 mg/kg single oral, urine 0-6 h post dose
# [10] = male rats, 10 mg/kg single oral, urine 6-24 h post dose
# [11] = male rats, 30 mg/kg single oral, urine 0-6 h post dose
# [12] = male rats, 30 mg/kg single oral, urine 6-24 h post dose
# [13] = male rats, 100 mg/kg single oral, urine 0-6 h post dose
# [14] = male rats, 100 mg/kg single oral, urine 6-24 h post dose
smiles,measurement,setting,value
"[2H]c1c([2H])c([2H])c2c(C(=O)c3cc(Br)c(O)c(Br)c3)c(C(C)O)oc2c1[2H] (racemic) [Compound 1, (3,5-dibromo-4-hydroxyphenyl)(2-(1-hydroxyethyl)benzofuran-3-yl-4,5,6,7-d4)methanone]",% UACR change vs Ctrl,[1]; [3],140%
same,% UACR change vs baseline,[1]; [3],73%
same,UACR,[1]; [3],102.7 mg/g
same,UALB,[1]; [3],33.71 mg/L
same,UCRE,[1]; [3],0.328 g/L
same,% UACR change vs Ctrl,[1]; [4],19%
same,% UACR change vs baseline,[1]; [4],44%
same,UACR,[1]; [4],40.3 mg/g
same,UALB,[1]; [4],24.2 mg/L
same,UCRE,[1]; [4],0.600 g/L
same,% UACR change vs Ctrl,[1]; [5],−53%
same,% UACR change vs baseline,[1]; [5],−6%
same,UACR,[1]; [5],17.5 mg/g
same,UALB,[1]; [5],5.22 mg/L
same,UCRE,[1]; [5],0.298 g/L
same,% UACR change vs Ctrl,[1]; [6],−41%
same,% UACR change vs baseline,[1]; [6],9%
same,UACR,[1]; [6],20.1 mg/g
same,UALB,[1]; [6],11.93 mg/L
same,UCRE,[1]; [6],0.593 g/L
same,% UACR change vs Ctrl,[1]; [7],−38%
same,% UACR change vs baseline,[1]; [7],−23%
same,UACR,[1]; [7],23.4 mg/g
same,UALB,[1]; [7],9.58 mg/L
same,UCRE,[1]; [7],0.409 g/L
same,% UACR change vs Ctrl,[1]; [8],−21%
same,% UACR change vs baseline,[1]; [8],−7%
same,UACR,[1]; [8],26.8 mg/g
same,UALB,[1]; [8],21.15 mg/L
same,UCRE,[1]; [8],0.790 g/L
same,% UACR change vs Ctrl,[1]; [9],−62%
same,% UACR change vs baseline,[1]; [9],−62%
same,UACR,[1]; [9],14.2 mg/g
same,UALB,[1]; [9],6.22 mg/L
same,UCRE,[1]; [9],0.438 g/L
same,% UACR change vs Ctrl,[1]; [10],−32%
same,% UACR change vs baseline,[1]; [10],23%
same,UACR,[1]; [10],28.3 mg/g
same,UALB,[1]; [10],14.79 mg/L
same,UCRE,[1]; [10],0.523 g/L
same,% UACR change vs Ctrl,[1]; [11],−59%
same,% UACR change vs baseline,[1]; [11],−46%
same,UACR,[1]; [11],15.5 mg/g
same,UALB,[1]; [11],8.73 mg/L
same,UCRE,[1]; [11],0.563 g/L
same,% UACR change vs Ctrl,[1]; [12],−28%
same,% UACR change vs baseline,[1]; [12],31%
same,UACR,[1]; [12],29.6 mg/g
same,UALB,[1]; [12],12.38 mg/L
same,UCRE,[1]; [12],0.418 g/L
same,% UACR change vs Ctrl,[1]; [13],−63%
same,% UACR change vs baseline,[1]; [13],−38%
same,UACR,[1]; [13],13.9 mg/g
same,UALB,[1]; [13],9.25 mg/L
same,UCRE,[1]; [13],0.666 g/L
same,% UACR change vs Ctrl,[1]; [14],−32%
same,% UACR change vs baseline,[1]; [14],46%
same,UACR,[1]; [14],28.0 mg/g
same,UALB,[1]; [14],15.18 mg/L
same,UCRE,[1]; [14],0.542 g/L
same,UACR,[2],41 mg/g
same,UACR % change from baseline,[2],−57.4%
